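Growth conditions: 96-well plates. Treatment: test compound, 48 hours, 5 concentrations. Analysis: linear interpolation between bracketing concentrations; unreached endpoints set to highest concentration. The concentration for full growth arrest is given as TGI.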 Some results are limits rather than exact numbers.

Among the data in PubChem BioAssay (NCI) are TGI values, retold here.

Among the test systems are UO-31 renal; UACC-257 melanoma; SN12C renal; MCF7 breast; SK-MEL-28 melanoma; MOLT-4 leukemia; DU-145 prostate; CCRF-CEM leukemia; HCT-116 colon; T-47D breast.
Common to all, as to assay: growth of human tumour cells (NCI), 48 h

As to `N#Cc1cc2c(n(C3OC(CO)C(O)C(O)C3O)c1=S)CCCCCC2` (stereo not given), the TGI with UO-31 renal, in the assay on UACC-257 melanoma, in the assay with SN12C renal, in the assay with MCF7 breast, with SK-MEL-28 melanoma and with MOLT-4 leukemia was more than 100 µM throughout. In addition, the TGI with DU-145 prostate, in the assay with CCRF-CEM leukemia, with HCT-116 colon and in the assay on T-47D breast was more than 100 µM each time.
Regarding `CCc1cc2c(c3c1CCCC3=O)CC1(Cc3ccc(C(=O)OC)cc3C1)C2` (stereo not given), the TGI with UO-31 renal, in the assay with UACC-257 melanoma, with SN12C renal, in the assay on MCF7 breast, in the assay with SK-MEL-28 melanoma and in the assay with MOLT-4 leukemia was more than 100 µM throughout. Besides, the TGI in the assay with DU-145 prostate is more than 100 µM; in the assay on CCRF-CEM leukemia it was 91.4 µM; in the assay with HCT-116 colon, more than 100 µM; with T-47D breast it was more than 100 µM.
Turning to `c1ccc(CN2CCC(Nc3ccccc3)(c3nnnn3Cc3ccccc3)CC2)cc1`, the TGI with UO-31 renal was 26.6 µM; with UACC-257 melanoma, 34.5 µM; with SN12C renal it was more than 100 µM; in the assay on MCF7 breast it was 88.2 µM; in the assay with SK-MEL-28 melanoma, 36.5 µM; in the assay with MOLT-4 leukemia, more than 100 µM. Besides, the TGI in the assay with DU-145 prostate is more than 100 µM; with CCRF-CEM leukemia, 88.3 µM; in the assay on HCT-116 colon, 53.4 µM; with T-47D breast, 72.4 µM.
On to `CN1C(=O)C(O)C[C@@H]1c1ccccc1` (stereo not given in full), for which the TGI with UO-31 renal, in the assay with UACC-257 melanoma, with SN12C renal, with MCF7 breast, in the assay on SK-MEL-28 melanoma and in the assay on MOLT-4 leukemia was more than 100 µM throughout. In addition, the TGI with DU-145 prostate, in the assay on CCRF-CEM leukemia, in the assay with HCT-116 colon and in the assay on T-47D breast was more than 100 µM throughout.
As for `CCCSc1ccc2[nH]c(N3C(=O)/C(=C/c4ccccc4)N=C3c3ccccc3)cc2c1`, the TGI in the assay with UO-31 renal, with UACC-257 melanoma, in the assay on SN12C renal, in the assay on MCF7 breast, in the assay on SK-MEL-28 melanoma and with MOLT-4 leukemia was more than 50 µM each time. The TGI in the assay on DU-145 prostate, with CCRF-CEM leukemia, in the assay with HCT-116 colon and in the assay with T-47D breast was more than 50 µM throughout.
On to `CC(C)C(C/C=C1\CC(CO)(COC(=O)C2CCCCC2)OC1=O)C(C)C` (stereo not given), for which the TGI came out at 32.1 µM with UO-31 renal; 84.1 µM with UACC-257 melanoma; 31.2 µM with SN12C renal; 39 µM in the assay with MCF7 breast; 33.8 µM in the assay on SK-MEL-28 melanoma; 39.8 µM in the assay on MOLT-4 leukemia. For the same compound, the TGI in the assay with DU-145 prostate turned out to be 26.9 µM; with CCRF-CEM leukemia, 43 µM; with HCT-116 colon, 36.5 µM; in the assay with T-47D breast it was 48 µM.
For the compound `COc1ccc(C(SC2C(O)C(CO)OC2n2ccc(=O)[nH]c2=O)(c2ccccc2)c2ccc(OC)cc2)cc1` (stereo not given), the TGI in the assay on UO-31 renal is 33.4 µM; in the assay with UACC-257 melanoma, 33.5 µM; in the assay with SN12C renal it was 32.4 µM; in the assay with MCF7 breast, 43.7 µM; in the assay with SK-MEL-28 melanoma, 53.9 µM; with MOLT-4 leukemia, more than 100 µM. Also, the TGI in the assay on DU-145 prostate was 34.4 µM; with CCRF-CEM leukemia, more than 100 µM; in the assay on HCT-116 colon it was 29.2 µM; in the assay with T-47D breast it was 48.7 µM.
Take `O=C(CCN1CCN2c3ccccc3CCC2C1)c1ccc(F)cc1` (stereo not given): the TGI in the assay on UO-31 renal is 40.8 µM; with UACC-257 melanoma, 97.1 µM; in the assay with SN12C renal, more than 100 µM; in the assay on MCF7 breast, 51.3 µM; with SK-MEL-28 melanoma it was 32.2 µM; in the assay with MOLT-4 leukemia it was more than 100 µM. Moreover, the TGI in the assay on DU-145 prostate is 90.3 µM; in the assay on CCRF-CEM leukemia it was more than 100 µM; with HCT-116 colon it was more than 100 µM; in the assay with T-47D breast it was 45.9 µM.
Take `CN(C)Cc1cc(C(=O)/C=C/c2ccccc2)cc(CN(C)C)c1O`: the TGI in the assay on UO-31 renal is 40.7 µM; in the assay with UACC-257 melanoma, 27.9 µM; in the assay on SN12C renal it was 30.9 µM; in the assay with MCF7 breast it was more than 100 µM; in the assay with SK-MEL-28 melanoma, more than 100 µM; in the assay on MOLT-4 leukemia it was 63.7 µM. In addition, the TGI in the assay on DU-145 prostate was more than 100 µM; in the assay with CCRF-CEM leukemia it was more than 100 µM; with HCT-116 colon it was 87.8 µM; in the assay on T-47D breast, more than 100 µM.
Take `CC1(C)CC(=O)C2(CC(CSc3ccccc3)C(CS(=O)(=O)c3ccccc3)C2)C(=O)C1` (stereo not given): the TGI with UO-31 renal, with UACC-257 melanoma, with SN12C renal, in the assay with MCF7 breast, with SK-MEL-28 melanoma and with MOLT-4 leukemia was more than 100 µM throughout. For the same compound, the TGI in the assay on DU-145 prostate, with CCRF-CEM leukemia, in the assay with HCT-116 colon and in the assay with T-47D breast was more than 100 µM each time.
Take `COc1cc(C2C3=C(COC3=O)Oc3cc4c(cc32)OCO4)cc(OC)c1O` (stereo not given): the TGI is 49.6 µM with UO-31 renal; more than 61.7 µM with UACC-257 melanoma; 23.2 µM in the assay on SN12C renal; more than 48.2 µM with MCF7 breast; 89.8 µM in the assay with SK-MEL-28 melanoma; 26 µM in the assay on MOLT-4 leukemia. Further, the TGI in the assay on DU-145 prostate was 0.391 µM; in the assay on CCRF-CEM leukemia it was more than 66.9 µM; with HCT-116 colon, 0.208 µM; in the assay on T-47D breast, 60.3 µM.
Turning to `Cc1nc(N)c(N2CCN(CN)CC2)c(=O)[nH]1`, the TGI in the assay with UO-31 renal, in the assay on UACC-257 melanoma, with SN12C renal, in the assay with MCF7 breast, in the assay with SK-MEL-28 melanoma and with MOLT-4 leukemia was more than 100 µM each time. For the same compound, the TGI in the assay on DU-145 prostate, in the assay with CCRF-CEM leukemia, with HCT-116 colon and in the assay with T-47D breast was more than 100 µM throughout.
As to `NNC(=O)C1(NC(=O)c2ccccc2)C(c2ccccc2)C(c2ccccc2)=NN1c1ccccc1` (stereo not given), the TGI is more than 100 µM in the assay on UO-31 renal; more than 100 µM in the assay with UACC-257 melanoma; more than 100 µM in the assay with SN12C renal; more than 100 µM in the assay on MCF7 breast; more than 100 µM in the assay on SK-MEL-28 melanoma; 40.7 µM with MOLT-4 leukemia. Besides, the TGI was more than 100 µM in the assay on DU-145 prostate, 98.4 µM in the assay on CCRF-CEM leukemia, more than 100 µM with HCT-116 colon and more than 100 µM in the assay on T-47D breast.
